# Data as given in patent US20230181602A1, “TREATMENT OF NON-ALCOHOLIC STEATOHEPATITIS (NASH)” (DURECT CORPORATION, priority 2020, published 2023).
# What was measured:
# [1] = Single dose safety and pharmacokinetic study in subjects with NASH and control healthy subjects; format: in vivo, human
# Description: The present Example was a randomized, dose ranging, single dose safety and pharmacokinetic study of 25HC3S administered to subjects with NASH and control healthy subjects. […] For each cohort, 10 subjects with NASH were enrolled which were further classified into cirrhotic and non-cirrhotic. Each subject received only one dose of study treatment. The second cohort was dosed after a review of safety and tolerability data from Cohort 1.
# [2] = Tissue distribution by quantitative whole body autoradiography after single oral (gavage) dose; format: in vivo, Sprague Dawley rats; conditions: 75 mg/kg oral
# [3] = Excretion after single oral (gavage) dose in rats; format: in vivo; conditions: 75 mg/kg single oral (gavage) dose
# [4] = Tissue distribution by quantitative whole body autoradiography after single intravenous dose; format: in vivo, Sprague Dawley rats; conditions: 10 mg/kg intravenous
# Description: (§1) The objectives of this study were to determine the plasma pharmacokinetics of [4-^14C]-25HC3S-derived radioactivity in male Sprague Dawley rats, determine the routes of elimination and excretion mass balance of [4-^14C]-25HC3 S-derived radioactivity in male Sprague Dawley rats, determine the tissue distribution and tissue pharmacokinetics of [4-^14C]-25HC3S-derived radioactivity using quantitative whole body autoradiography methods in male Sprague Dawley and Long Evans rats following a single intravenous (bolus) dose, and to provide plasma, urine, and fecal homogenate samples for metabolite profiling of [4-^14C]-25HC3 S-derived radioactivity.
# (§2) Nine male Sprague Dawley rats (Group 1) were designated for the pharmacokinetic phase, 3 male Sprague Dawley rats (Group 2) for the excretion mass balance phase, and 7 male Sprague Dawley rats (Group 3) and 9 male Long Evans rats (Group 4) for the tissue distribution phase. All animals received a single intravenous dose of [^14C]-25HC3S at 10 mg/kg and a target radioactivity of 225 μCi/kg. Blood samples were collected from all Group 1 animals at approximately 0.083, 0.25, 0.5, 1, 2, 4, 8, 12, 24, 48, and 72 hours post-dose. Urine and feces were collected from all Group 2 animals periodically through 168 hours post-dose. […] Following blood collection, animals were euthanized by CO2 inhalation and carcasses frozen in a dry ice/hexane bath for processing by quantitative whole body autoradiography. Whole blood, plasma, urine, feces, cage rinse, and cage wash were analyzed for total radioactivity by liquid scintillation counting.
# [5] = Plasma pharmacokinetics after single oral (gavage) dose in rats; format: in vivo; conditions: 75 mg/kg single oral (gavage) dose
# Description: The terminal elimination phase T1/2 was 27.3 hours.
# [6] = Plasma pharmacokinetics of radioactivity after single intravenous dose in rats; format: in vivo, Sprague Dawley rats; conditions: 10 mg/kg single intravenous (bolus) dose
# Description: as §1, §2
# [7] = Metabolite profiling of plasma and feces after oral dose in rats; format: in vivo; conditions: 75 mg/kg oral
# Description: Radiolabeled components in plasma and feces extracts were profiled and identified using radio-high performance liquid chromatography (HPLC) and high performance liquid chromatography/mass spectrometry (HPLC/MS) methods.
# Plasma pools were prepared for Group 1 (75 mg/kg, [^14C]-25HC3S) samples collected at 2, 4, and 6 hours post-dose. […] One metabolite M29 was identified as 25-hydroxycholesterol with 37% ROI and a concentration of 1233 ng-equiv./g.
# Feces pools were prepared for Group 2 (75 mg/kg, [^14C]-25HC3S) samples collected from 0 to 24, 24 to 48, 48 to 72, 72 to 96, 96 to 120, 120 to 144, and 144 to 168 hours post-dose. A total of eleven metabolites were identified. None of the metabolites were present at ≥5% of dose. Metabolites present at 2-5% of dose were M1 (4.5% of total dose and 1%-69% ROI), M3 (4.6% of total dose and 1%-44% ROI), M4 (2.0% of total dose and 0%-10% ROI), M8 (3.1% of total dose and 1%-46% ROI), […], and M30 (3.3% of total dose and 0%-5% ROI).
compound,measurement,setting,value
C[C@H](CCCC(C)(C)O)[C@H]1CC[C@H]2[C@@H]3CC=C4C[C@@H](OS(=O)(=O)[O-])CC[C@]4(C)[C@H]3CC[C@]12C.[Na+] [25HC3S sodium],difference between healthy and NASH subjects in pharmacokinetics (Cmax and AUC),[1]; 50 mg and 200 mg,no clear difference
same,increase of geometric mean Cmax in NASH subjects over healthy subjects,[1]; Cohorts 1 and 2,18-24%
same,increasing trends in exposure (AUC parameters) in NASH subjects,[1]; NASH versus healthy subjects,up to 31%
C[C@H](CCCC(C)(C)O)[C@H]1CC[C@H]2[C@@H]3CC=C4[14CH2][C@@H](OS(=O)(=O)O)CC[C@]4(C)[C@H]3CC[C@]12C [[4-^14C]-25HC3S],plasma:whole blood AUClast ratio,[2],1.12
same,"skin, thymus, prostate, and pituitary tissue concentrations",[2],< 3000 ng equiv./g
same,tissue Tmax,[2],≤ 6 h
same,tissue concentrations by 168 hours post-dose,[2],near or below the quantitation limit in all tissues except adrenal gland and liver
same,tissue distribution of drug and/or its metabolites,[2],broadly distributed and detected by quantitative whole body autoradiography in all tissues except the eye (lens)
same,"tissue:plasma ratio (AUClast), adrenal gland",[2],6.64
same,"tissue:plasma ratio (AUClast), liver",[2],6.96
same,"tissue:plasma ratio (AUClast), small intestine (wall)",[2],15.4
same,uveal tract and brain concentrations,[2],approximately 1000 ng equiv./g
same,whole blood AUClast,[2],"127,000 h·ng equiv./g"
same,"dose recovered in urine, feces, and cage rinse",[3],approximately 94.5%
same,recovered radioactivity in feces,[3],94.2%
same,AUClast in liver,[4],"≤ 364,000 h·ng/g"
same,"concentrations in thymus, bone (femur), uveal tract, fat, testes, and brain (approximate)",[4],around 1500 ng-equiv./g
same,"concentrations in thymus, bone (femur), uveal tract, fat, testes, and brain (bound)",[4],< 5000 ng-equiv./g
same,tissue concentrations by 168 hours postdose,[4],"below quantitation limit in all tissues except adrenal gland, harderian gland, liver, and small intestine"
same,"tissue:plasma ratio (AUClast), liver",[4],11.4
same,"tissue:plasma ratio (AUClast), small intestine (wall)",[4],7.44
same,tissue distribution of drug and/or its metabolites,[4]; Group 3,broadly distributed and detected by quantitative whole body autoradiography in all tissues except the eye (lens)
same,plasma AUClast (radioactivity),[5],"96,400 h·ng equiv./g"
same,terminal elimination phase T1/2,[5],27.3 h
same,mean plasma C0 (radioactivity),[6],"25,900 ng-equiv./g"
same,plasma AUClast (radioactivity),[6],"27,900 h*ng-equiv./g"
same,"terminal elimination phase T1/2, plasma",[6],26.6 h
desmosterol sulfate,presence in plasma or feces samples,[7],not found
